{"source": "paper PMC4584933", "about": "“Establishing the pig as a large animal model for vaccine development against human cancer” (Frontiers in Genetics, 2015)", "key": {"[1]": {"assay": "Dissolving of 20mer peptides for immunization", "format": "physicochemical", "conditions": "to 5 mM in milliQ water, N-methyl-2-pyrrolidone or 3% ammonia water", "description": "Fifty-nine 20mer peptides with 10mer overlap covering the entire IDO and RhoC amino acid (aa) sequence were purchased from Genscript (New Jersey, U.S) or Pepscan Presto BV (Lelystad, the Netherlands). […] Peptides were dissolved to a concentration of 5 mM in milliQ water, N-methyl-2-pyrrolidone or 3% ammonia water in accordance with the supplier's recommendations, for further details see Supplementary Table 1."}, "SLA-3*04:01": {"test_system": "SLA-3*04:01", "assay": "Peptide-MHC class I complex stability, scintillation proximity assay (SPA)", "set-up": "species or system pig", "conditions": "biotinylated recombinant SLA heavy chain, 125I-β2m, excess unlabeled β2m, read every 40 min, number only if t1/2 ≥ 0.5 h, '-' = not stably binding", "in_short": "(§1)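 Biotinylated recombinant heavy chains captured on streptavidin scintillation plates with 125I-β2m and peptide; signal read every 40 min under dissociating conditions with excess unlabeled β2m. Signal duration gives complex half-life; ≥ 0.5 h counted as stable binder.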"}, "SLA-2*04:01": {"test_system": "SLA-2*04:01", "assay": "Peptide-MHC class I complex stability, scintillation proximity assay (SPA)", "set-up": "species or system pig", "conditions": "biotinylated recombinant SLA heavy chain, 125I-β2m, excess unlabeled β2m, read every 40 min, number only if t1/2 ≥ 0.5 h, '-' = not stably binding", "in_short": "as §1"}, "SLA-1*04:01": {"test_system": "SLA-1*04:01", "assay": "Peptide-MHC class I complex stability, scintillation proximity assay (SPA)", "set-up": "species or system pig", "conditions": "biotinylated recombinant SLA heavy chain, 125I-β2m, excess unlabeled β2m, read every 40 min, number only if t1/2 ≥ 0.5 h, '-' = not stably binding", "in_short": "as §1"}, "SLA-2*05:02": {"test_system": "SLA-2*05:02", "assay": "Peptide-MHC class I complex stability, scintillation proximity assay (SPA)", "set-up": "species or system pig", "conditions": "biotinylated recombinant SLA heavy chain, 125I-β2m, excess unlabeled β2m, read every 40 min, number only if t1/2 ≥ 0.5 h, '-' = not stably binding", "in_short": "as §1"}, "SLA-1*07:02": {"test_system": "SLA-1*07:02", "assay": "Peptide-MHC class I complex stability, scintillation proximity assay (SPA)", "set-up": "species or system pig", "conditions": "biotinylated recombinant SLA heavy chain, 125I-β2m, excess unlabeled β2m, read every 40 min, number only if t1/2 ≥ 0.5 h, '-' = not stably binding", "in_short": "as §1"}}}
{"substance": "IDO330−350: 20mer peptide of the overlapping IDO/RhoC library, omitted due to dissolving problems (EAYDACVKALVSLRSYHLQIV; UniProt P14902 330-350, looked up, fragment)", "values": [{"measurement": "dissolving of peptide", "setting": "[1]", "result": "dissolving problems"}]}
{"substance": "MTYKNMDILF [IDO81, porcine IDO-derived 9-11mer peptide]", "values": [{"measurement": "Binder (t1/2 ≥ 0.5 h): half-life of peptide-SLA-3*04:01 complex", "setting": "SLA-3*04:01", "result": "- (t1/2 (hours) is listed for each of the stably binding peptides (t1/2 ≥ 0.5 h))"}, {"measurement": "Binder (t1/2 ≥ 0.5 h): half-life of peptide-SLA-2*04:01 complex", "setting": "SLA-2*04:01", "result": 4.2, "unit": "h"}, {"measurement": "Binder (t1/2 ≥ 0.5 h): half-life of peptide-SLA-1*04:01 complex", "setting": "SLA-1*04:01", "result": "- (t1/2 (hours) is listed for each of the stably binding peptides (t1/2 ≥ 0.5 h))"}, {"measurement": "Binder (t1/2 ≥ 0.5 h): half-life of peptide-SLA-2*05:02 complex", "setting": "SLA-2*05:02", "result": "- (t1/2 (hours) is listed for each of the stably binding peptides (t1/2 ≥ 0.5 h))"}, {"measurement": "Binder (t1/2 ≥ 0.5 h): half-life of peptide-SLA-1*07:02 complex", "setting": "SLA-1*07:02", "result": "- (t1/2 (hours) is listed for each of the stably binding peptides (t1/2 ≥ 0.5 h))"}]}
